The results in this text go back to patent US20020028807A1, “Non-nucleoside reverse transcriptase inhibitors” (priority 2000, published 2002).

The target in one assay is T1, HIV-1 RT K103N/Y181C (Human immunodeficiency virus type 1 group M subtype B, UniProt P03366, K702N/Y780C).
T1 construct: an HIV RT clone pKRT2 containing only the RT p66 gene regulated by the lac operon/trc promoter; made in house; host or cells: E. coli JM109, vector pKK233-2
As to the kind of experiment: Reverse transcriptase (RT) assay, K103N/Y181C mutant. The assay is classed as biochemical. The text has this:
(§1) Among the enzymes for which Human Immunodeficiency Virus (HIV-1) encodes is a reverse transcriptase (1), so-named because it transcribes a DNA copy from an RNA template. This activity can be quantitatively measured in a cell-free enzyme assay and is based upon the observation that reverse transcriptase is able to use a synthetic template poly r(C) primed with a biotinylated oligo d(G) to transcribe a radio-labelled DNA strand utilising 3H-dGTP as a substrate. The assay described below utilises the wild-type enzyme (which is the predominant form of the enzyme observed in patients infected with HIV-1) and can also be used with mutant RT enzymes (for example, Y181C, prepared by site-directed mutagenesis in which the tyrosine residue at codon 181 has been replaced by a cysteine residue) in analogous assay conditions. This assay allows compounds to be evaluated for their effectiveness at inhibiting the mutant enzymes.
(§2) Some HIV-1 IIIB clone BH10 RT mutants were provided by Dr. C.-K. Shih (Boehringer Ingelheim Pharmaceutials Inc., U.S.A.) in the vector pKK233-2 (Pharmacia). Briefly an HIV RT clone pKRT2 containing only the RT p66 gene regulated by the lac operon/trc promoter was obtained from Dr. W. Summers (Yale University) (2). A variety of specific amino acid substitutions were introduced into the wild-type RT gene by site-directed mutagenesis. RT clones were subcloned into the pKK233-2 bacterial expression vector. Clones provided included wild-type, Val106Ala, Tyr181Cys, Tyr188Cys, Tyr188Leu, Gly190Ala and Pro236Leu. Others were made in-house by site-directed mutagenesis of the pKK233-2 RT clones including Lys103Asn, Lys103Asn/Tyr181Cys, Lys103Asn/Leu100Ile, Lys103Asn/Pro225His, and Lys103Asn/Val108Ile.
(§3) Purification of recombinant reverse transcriptase was performed using a combination of methods previously described (3). A single colony from a fresh plate of transformed JM109 cells was used to initiate growth of a pre-culture grown o/n at 37° C. Two liters of growth medium were inoculated with this pre-culture. At OD600˜1.5 (5-6 h at 37° C.), RT gene expression was induced with IPTG (1 mM final), and the fermentation was continued for a few more hours at 37° C. After centrifugation, supernatants were discarded while cell pellets were pooled and stored at −80° C. until purification. Cells were thawed at 4° C. overnight and suspended in lysis buffer (MES 50 mM pH 6, EDTA 1 mM, 10% v/v glyerol, 0.02% w/v OBG, 0.02% w/v sodium azide). Lysozyme was added and the mixture was incubated on ice for 40 minutes. After homogenization using a bounce in presence of lysozyme and sonication, the cells were centrifuged for 30 minutes. Supernatant (S1) was saved and stored at 4° C. The centrifuged pellet was resuspended in extraction buffer (MES 50 mM pH 6, KPO4 50 mM pH 6, KCl 100 mM, 10% v/v glycerol, 0.02% w/v OBG, 0.02% w/v sodium axide) and stirred for 30 minutes at 4° C. This second mixture was centrifuged again and the supernatant (S2) was saved. The above procedure was repeated 2 more times saving supernatants S3 and S4 and one last extraction was performed overnight (S5). Polymin P (0.005% final) was added to the combined supernatants to remove nucleic acids. This solution was stirred for 75 minutes at 4° C. and centrifuged for 1 h. The supernatant (SS1) was precipitated on ice with 20% w/v ammonium sulfate and stirred for 1 h at 4° C. The mixture was then centrifuged and the resulting supernatant (SS2) was precipitated with additional 40% w/v ammonium sulfate (60% total), stirred for 1 h and centrifuged again. The final pellet (P1) was stored overnight at 4° C. before undergoing purification the following day. All steps of the purification were performed at 4° C. unless otherwise stated.
(§4) Pellet (P1) was resuspended into MES 50 mM pH 6, KPO4 10 mM pH 6, KCl 100 mM, 10% v/v glycerol, 0.02% w/v OBG, 0.02% w/v sodium azide. The suspension was dialysis against the same buffer overnight using 12-14 kD MWCO dialysis tubing. […]

Assay [1] relates to HIV coding for mutant reverse transcriptase K103N/Y181C. Briefly: ELISA (p24) assay of HIV replication in C8166 cell culture, K103N/Y181C virus. It counts as cell-based, HIV-1. As to conditions: Human immunodeficiency virus 1, C8166, 72 h, read-out: EC50 K103N/Y181C. The protocol: (§5) Compounds of the invention were tested for their ability to inhibit HIV replication in cell culture in a 96-well plate assay. Complete RPMI 1640, consisting of RPMI 1640+10% fetal bovine serum, 10 μg/ml gentamycin and 10 μM β-mercaptoethanol was used for dilution of the compound as well as cell growth medium. The T lymphocyte cell line C8166 was infected at a multiplicity of infection of 0.001 with viruses coding for wild-type and mutant reverse transcriptase. Cells were then incubated for three days in the presence of serial dilutions of the compounds of the invention. The supernatant was pooled from eight replica wells and the concentration of extracellular p24 was determined using a commercially available HIV-1 p24 antigen assay kit (Beckman-Coulter®). The level of inhibition (% inhibition) was calculated with the following equation: [formula]
For orientation: An ELISA detects its analyte on a solid surface through an enzyme-linked reagent.

The subject of assay [2] is HIV coding for mutant reverse transcriptase V106A. Briefly: ELISA (p24) assay of HIV replication in C8166 cell culture, V106A virus. It counts as cell-based, HIV-1. The following applies: Human immunodeficiency virus 1, C8166, 72 h, read-out: EC50 V106A. The protocol: as §5
The next assay has as its target T2, HIV-1 RT Y181C (Human immunodeficiency virus type 1 group M subtype B, UniProt P03366, Y780C).
T2 construct: an HIV RT clone pKRT2 containing only the RT p66 gene regulated by the lac operon/trc promoter; made in house; host or cells: E. coli JM109, vector pKK233-2
As to the kind of experiment: Reverse transcriptase (RT) assay, Y181C mutant. It counts as biochemical.
Description: as §1, §2, §3, §4

The next assay concerns the target T3, HIV-1 RT K103N/V108I (Human immunodeficiency virus type 1 group M subtype B, UniProt P03366, K702N/V707I).
T3 construct: an HIV RT clone pKRT2 containing only the RT p66 gene regulated by the lac operon/trc promoter; made in house; host or cells: E. coli JM109, vector pKK233-2
Briefly: Reverse transcriptase (RT) assay, K103N/V108I mutant. The assay is classed as biochemical.
Description: as §1, §2, §3, §4

A further assay addresses T4, HIV-1 RT Y188L (Human immunodeficiency virus type 1 group M subtype B, UniProt P03366, Y787L).
T4 construct: an HIV RT clone pKRT2 containing only the RT p66 gene regulated by the lac operon/trc promoter; made in house; host or cells: E. coli JM109, vector pKK233-2
As to the kind of experiment: Reverse transcriptase (RT) assay, Y188L mutant. The assay is classed as biochemical.
Description: as §1, §2, §3, §4

For another assay, the target named is T5, HIV-1 RT V106A (Human immunodeficiency virus type 1 group M subtype B, UniProt P03366, V705A).
T5 construct: an HIV RT clone pKRT2 containing only the RT p66 gene regulated by the lac operon/trc promoter; made in house; host or cells: E. coli JM109, vector pKK233-2
Briefly: Reverse transcriptase (RT) assay, V106A mutant. It counts as biochemical.
Description: as §1, §2, §3, §4

The target of another assay is T6, HIV-1 RT wild-type (WT) (Human immunodeficiency virus type 1 group M subtype B, UniProt P03366).
T6 construct: an HIV RT clone pKRT2 containing only the RT p66 gene regulated by the lac operon/trc promoter; made in house; host or cells: E. coli JM109, vector pKK233-2
As to the kind of experiment: Reverse transcriptase (RT) assay, wild-type enzyme. It counts as biochemical.
Description: as §1, §2, §3, §4

A further assay concerns the target T7, HIV-1 RT K103N/P225H (Human immunodeficiency virus type 1 group M subtype B, UniProt P03366, K702N/P824H).
T7 construct: an HIV RT clone pKRT2 containing only the RT p66 gene regulated by the lac operon/trc promoter; made in house; host or cells: E. coli JM109, vector pKK233-2
Briefly: Reverse transcriptase (RT) assay, K103N/P225H mutant. It counts as biochemical.
Description: as §1, §2, §3, §4

A further assay has as its target T8, HIV-1 RT K103N/L100I (Human immunodeficiency virus type 1 group M subtype B, UniProt P03366, K702N/L699I).
T8 construct: an HIV RT clone pKRT2 containing only the RT p66 gene regulated by the lac operon/trc promoter; made in house; host or cells: E. coli JM109, vector pKK233-2
As to the kind of experiment: Reverse transcriptase (RT) assay, K103N/L100I mutant. The assay is classed as biochemical.
Description: as §1, §2, §3, §4

The next assay concerns the target T9, HIV-1 RT K103N (Human immunodeficiency virus type 1 group M subtype B, UniProt P03366, K702N).
T9 construct: an HIV RT clone pKRT2 containing only the RT p66 gene regulated by the lac operon/trc promoter; made in house; host or cells: E. coli JM109, vector pKK233-2
As to the kind of experiment: Reverse transcriptase (RT) assay, K103N mutant. The assay is classed as biochemical.
Description: as §1, §2, §3, §4

In assay [3] the test system is HIV coding for wild-type reverse transcriptase (WT RT). Briefly: ELISA (p24) assay of HIV replication in C8166 cell culture, wild-type RT virus. The following applies: Human immunodeficiency virus 1, C8166, 72 h, read-out: EC50 WT RT. The assay is classed as cell-based, HIV-1. The protocol: as §5
Assay [4] relates to HIV coding for mutant reverse transcriptase Y188L. As to the kind of experiment: ELISA (p24) assay of HIV replication in C8166 cell culture, Y188L virus. It counts as cell-based, HIV-1. The following applies: Human immunodeficiency virus 1, C8166, 72 h, read-out: EC50 Y188L. The protocol: as §5
Assay [5] concerns HIV coding for mutant reverse transcriptase K103N/V108I. As to the kind of experiment: ELISA (p24) assay of HIV replication in C8166 cell culture, K103N/V108I virus. The assay is classed as cell-based, HIV-1. The following applies: Human immunodeficiency virus 1, C8166, 72 h, read-out: EC50 K103N/V108I. As to the method: as §5
In assay [6] the test system is HIV coding for mutant reverse transcriptase K103N. As to the kind of experiment: ELISA (p24) assay of HIV replication in C8166 cell culture, K103N virus. The assay is classed as cell-based, HIV-1. The following applies: Human immunodeficiency virus 1, C8166, 72 h, read-out: EC50 K103N. As to the method: as §5
For assay [7], the system named is HIV coding for mutant reverse transcriptase Y181C. As to the kind of experiment: ELISA (p24) assay of HIV replication in C8166 cell culture, Y181C virus. It counts as cell-based, HIV-1. As to conditions: Human immunodeficiency virus 1, C8166, 72 h, read-out: EC50 Y181C. As to the method: as §5
In assay [8] the test system is HIV coding for mutant reverse transcriptase K103N/L100I. As to the kind of experiment: ELISA (p24) assay of HIV replication in C8166 cell culture, K103N/L100I virus. The assay is classed as cell-based, HIV-1. The following applies: Human immunodeficiency virus 1, C8166, 72 h, read-out: EC50 K103N/L100I. As to the method: as §5
The subject of assay [9] is HIV coding for mutant reverse transcriptase K103N/P225H. Briefly: ELISA (p24) assay of HIV replication in C8166 cell culture, K103N/P225H virus. It counts as cell-based, HIV-1. As to conditions: Human immunodeficiency virus 1, C8166, 72 h, read-out: EC50 K103N/P225H. As to the method:
as §5

By IC50 is commonly meant the concentration needed to halve the response being measured.

Turning to `CCN1c2ncc(CCOc3cc[n+]([O-])c4ccccc34)cc2C(=O)Nc2c(C)cc(F)nc21` [compound 9, 5,11-Dihydro-11-ethyl-2-fluoro-4-methyl-8-{2-{(1-oxido-4-quinolinyl)-oxy}ethyl}-6H-dipyrido[3,2-b:2′,3′-e][1,4]diazepin-6-one], the IC50 at HIV-1 RT K103N/Y181C came out at 175 nM; at HIV-1 RT Y181C, 43 nM; on HIV-1 RT K103N/V108I, 58 nM; at HIV-1 RT Y188L it was 3.39 µM; on HIV-1 RT V106A it was 98 nM; on HIV-1 RT wild-type (WT), 14 nM. The figures for the IC50 on HIV-1 RT K103N/P225H, on HIV-1 RT K103N/L100I and at HIV-1 RT K103N were 25 nM, 88 nM and 23 nM, respectively. For the same compound, the EC50 in assay [1] worked out at 7.6 nM; in assay [2], 5 nM; in assay [3], 0.92 nM; in [4], 118 nM.

For `CCN1c2ncc(CCOc3cc[n+]([O-])c4ccccc34)cc2C(=O)Nc2c(C)ccnc21` [compound 12, 5,11-Dihydro-11-ethyl-4-methyl-8-{2-{(1-oxido-4-quinolinyl)oxy}ethyl}-6H-dipyrido[3,2-b:2′,3′-e][1,4]diazepin-6-one], the EC50 stood at 5 nM in assay [5]; 2.8 nM in [6]; 12.4 nM in [2]; 2.7 nM in assay [7]; 2.9 nM in assay [8]; 0.26 nM in [3]. Further, in [9], the EC50 stood at 1.5 nM. Moreover, the IC50 on HIV-1 RT K103N/Y181C is 212 nM; at HIV-1 RT Y181C it was 38 nM; at HIV-1 RT K103N/V108I, 75 nM; at HIV-1 RT Y188L, above 10 µM; at HIV-1 RT V106A, 121 nM; at HIV-1 RT wild-type (WT), 12 nM. Also, the IC50 at HIV-1 RT K103N/P225H is 38 nM; on HIV-1 RT K103N/L100I, 124 nM; at HIV-1 RT K103N, 31 nM.
